Test results as given in patent publication US11369591B2, “Drug delivery from hydrogels” (Incept, LLC, priority 2015, dated 2022).
Values after ≈ are worked out from the molar mass of the structure shown. Where a name gives a salt, the structure may show the parent alone.

What was measured:
[1] = experimental water solubility when available in the scientific literature; cited from earlier work
[2] = system: vitreous of a Male New Zealand white rabbit; experiment: Intravitreal injection of micronized axitinib suspension, histology after 1 month; type: in vivo; conditions: for Inflammation around the injected material / Inflammation within the vitreous Chamber: semi-quantitative scale 0-5
Method: (§1) 50 μL of the 2% axitinib suspension was then drawn into a 100 μL luer lock Hamilton syringe using a 21G 1.5″ needle. The needle was swapped for a fresh 27G ½″ TW needle (Nipro). The 50 μL suspension was then injected at the 6 o'clock position within the vitreous of a Male New Zealand white rabbit. After 1 month, eyes were explanted and prepared for histology.
(§2) Two eyes were fixed (Davidson's), blocked, sectioned, mounted and stained for microscopical examination by a board certified veterinary pathologist. Eyes were sectioned according to the following scheme: A suture had been placed at the 12 o'clock position for orientation at harvest. Typically eyes were trimmed in half in the plane from 12 o'clock to 6 o'clock through the lens and optic nerve along the midline. This captures as many optic structures in one plane as is possible. The trimmed eyes were examined grossly and abnormalities noted. Each half of the globe trimmed was embedded in its own cassette. Cassette A is always the nasal half of the eye, and cassette B is always the temporal half of the eye. For each block 6 hematoxylin and eosin (H&E)-stained slides were prepared that were separated by 1000 microns (1 mm). Each slide contained 2 serial sections of eye on it. All slides were evaluated by a board-certified veterinary pathologist at Charter Preclinical Services. Tissues were scored on a semi-quantitative scale from 0-5 for any abnormalities.
Eyes were scored in several categories for signs of inflammation or other adverse findings. Inflammation scores were as follows:
1—Rare foci of change; minimal
2—Mild diffuse change or more pronounced focal change
3—Moderate diffuse change
5 μL of the 4% Axitinib suspension was then drawn into a 100 μL luer lock Hamilton syringe using a 21G 1.5″ needle. The needle was swapped for a fresh 27G ½″ TW needle (Nipro). The 50 μL suspension was then injected at the 6 o'clock position within the vitreous of a Male New Zealand white rabbit. After 1 month, eyes were explanted and prepared for histology.
as §2, with “(Davidson's fixative solution),” for “(Davidson's),”
Eyes were scored in several categories for signs of inflammation or other adverse findings as described above.
as §1, with “the 8%” for “the 2%”, “TW Nipro needle.” for “TW needle (Nipro).”, “of both eyes in” for “of a”

[3] = Steroid solubility studies in dissolution media (PBS, pH 6.3), Example 10; type: physicochemical; conditions: for solubility at 68 h: pH 6.3, aqueous buffer, thermodynamic from solid
Method: Solubility of the steroid candidates was assessed in dissolution media (PBS, pH 6.3) at ambient temperatures for 68 hours. UV detection of soluble steroid was determined relative to a standard curve.

[4] = statement in words; cited from earlier work

| Compound | Experimental Solubility [1] | other results |
| --- | --- | --- |
| CNC(=O)c1ccccc1Sc1ccc2c(/C=C/c3ccccn3)n[nH]c2c1 [Axitinib] | 1 µg/mL | Other adverse findings (retina, sclera, lens, etc.) ([2]; 100 μg): none; Inflammation around the injected material ([2]; 100 μg): 0.04±0.29; Inflammation within the vitreous Chamber ([2]; 100 μg): 0.0±0.0; Other adverse findings (retina, sclera, lens, etc.) ([2]; 200 μg): none; Inflammation around the injected material ([2]; 200 μg): 0.08±0.37; Inflammation within the vitreous Chamber ([2]; 200 μg): 0.14±0.35; Other adverse findings (retina, sclera, lens, etc.) ([2]; 400 ug, both eyes): none; Inflammation around the injected material ([2]; 400 ug, both eyes): 0.14±0.35; Inflammation within the vitreous Chamber ([2]; 400 ug, both eyes): 0.14±0.35 |
| CN1CCCC(n2nc(Cc3ccc(Cl)cc3)c3ccccc3c2=O)CC1 (centres unmarked) [Azelastine Base] | 50 µg/mL | – |
| CN1CCCC(n2nc(Cc3ccc(Cl)cc3)c3ccccc3c2=O)CC1.O=C(O)c1cc2ccccc2c(Cc2c(O)c(C(=O)O)cc3ccccc23)c1O [Azelastine Embonate] | 15 µg/mL | – |
| CC[C@H]1OC(=O)[C@H](C)[C@@H](O[C@H]2C[C@@](C)(OC)[C@@H](O)[C@H](C)O2)[C@H](C)[C@@H](O[C@@H]2O[C@H](C)C[C@H](N(C)C)[C@H]2O)[C@](C)(O)C[C@@H](C)CN(C)[C@H](C)[C@@H](O)[C@]1(C)O [Azithromycin] | 69 µg/mL | – |
| N[C@@H]1CCCCN(c2c(F)cc3c(=O)c(C(=O)O)cn(C4CC4)c3c2Cl)C1 [Besifloxacin Base] | 90 µg/mL | – |
| C[C@H]1C[C@H]2[C@@H]3CCC4=CC(=O)C=C[C@]4(C)[C@@]3(F)[C@@H](O)C[C@]2(C)[C@@]1(O)C(=O)COP(=O)([O-])[O-].[Na+].[Na+] [Betamethasone Sodium Phosphate] | 67 µg/mL | Max Solubility in PBS, pH 6.3 ([3]; PBS pH 6.3, ambient temperatures, 68 hours, UV detection): > 100,000 μg/mL; Solubility in water, descriptive ([3]; printed beside the Example 10 value): freely soluble |
| Nc1c(CC(=O)O)cccc1C(=O)c1ccc(Br)cc1 [Bromfenac] | 53,000 μg/mL | – |
| CCCC1O[C@@H]2C[C@H]3[C@@H]4CCC5=CC(=O)C=C[C@]5(C)[C@H]4[C@@H](O)C[C@]3(C)[C@]2(C(=O)CO)O1 (some centres unmarked) [Budesonide] | 24 µg/mL | solubility at 68 h [3]: 30 µg/mL (≈ 69.7 µM) |
| C[C@@H]1C[C@H]2[C@@H]3CCC4=CC(=O)C=C[C@]4(C)[C@@]3(F)[C@@H](O)C[C@]2(C)[C@@]1(O)C(=O)CO [Dexamethasone alcohol] | 89 µg/mL | – |
| O=C(O)Cc1ccccc1Nc1c(Cl)cccc1Cl [Diclofenac] | 600 µg/mL | – |
| CO[C@H]1C[C@@H]2CC[C@@H](C)[C@@](O)(O2)C(=O)C(=O)N2CCCC[C@H]2C(=O)O[C@H]([C@H](C)C[C@@H]2CC[C@@H](OCCO)[C@H](OC)C2)CC(=O)[C@H](C)/C=C(\C)[C@@H](O)[C@@H](OC)C(=O)[C@H](C)C[C@H](C)/C=C/C=C/C=C/1C [Everolimus] | 10 µg/mL | – |
| CC1(C)O[C@@H]2C[C@H]3[C@@H]4C[C@H](F)C5=CC(=O)C=C[C@]5(C)[C@H]4[C@@H](O)C[C@]3(C)[C@]2(C(=O)CO)O1 [Flunisolide, Anhydrous, USP, Flunisolide] | – | solubility at 68 h [3]: 90 µg/mL (≈ 207 µM) |
| CC(C(=O)O)c1ccc(-c2ccccc2)c(F)c1 (centres unmarked) [Flurbiprofen Sodium] | 61 µg/mL | – |
| CCC(=O)O[C@]1(C(=O)SCF)[C@H](C)C[C@H]2[C@@H]3C[C@H](F)C4=CC(=O)C=C[C@]4(C)[C@@]3(F)[C@@H](O)C[C@@]21C [Fluticasone Propionate] | 1 µg/mL | – |
| COc1c(N2CCNC(C)C2)c(F)cc2c(=O)c(C(=O)O)cn(C3CC3)c12 (centres unmarked) [Gatifloxacin] | 60,000 μg/mL | – |
| CN1CCC(=C2c3ccccc3CC(=O)c3sccc32)CC1 [Ketotifen base] | 15 µg/mL | – |
| CN1CCC(=C2c3ccccc3CC(=O)c3sccc32)CC1 [Ketotifen fumarate] | 10,000 μg/mL | – |
| CC(C)OC(=O)CCC/C=C\C[C@@H]1[C@@H](CC[C@@H](O)CCc2ccccc2)[C@H](O)C[C@@H]1O [Latanoprost] | – | solubility in aqueous solutions [4]: relatively low solubility |
| CCOC(=O)O[C@]1(C(=O)OCCl)CC[C@H]2[C@@H]3CCC4=CC(=O)C=C[C@]4(C)[C@H]3[C@@H](O)C[C@@]21C [Loteprednol etabonate] | 5 µg/mL | – |
| C[C@@H]1C[C@H]2[C@@H]3CCC4=CC(=O)C=C[C@]4(C)[C@@]3(Cl)[C@@H](O)C[C@]2(C)[C@@]1(OC(=O)c1ccco1)C(=O)CCl [Mometasone furoate] | 20 µg/mL | – |
| CO[C@H]1C[C@@H]2CC[C@@H](C)[C@@](O)(O2)C(=O)C(=O)N2CCCC[C@H]2C(=O)O[C@H]([C@H](C)C[C@@H]2CC[C@@H](O)[C@H](OC)C2)CC(=O)[C@H](C)/C=C(\C)[C@@H](O)[C@@H](OC)C(=O)[C@H](C)C[C@H](C)/C=C/C=C/C=C/1C [Sirolimus] | <100 µg/mL | – |
| CCN(CC)CCNC(=O)c1c(C)[nH]c(/C=C2\C(=O)Nc3ccc(F)cc32)c1C [Sunitinib Malate] | 25,000 μg/mL | – |
| C=CC[C@@H]1/C=C(\C)C[C@H](C)C[C@H](OC)[C@H]2O[C@@](O)(C(=O)C(=O)N3CCCC[C@H]3C(=O)O[C@H](/C(C)=C/[C@@H]3CC[C@@H](O)[C@H](OC)C3)[C@H](C)[C@@H](O)CC1=O)[C@H](C)C[C@@H]2OC [Tacrolimus] | 8 µg/mL | – |
| CC(C)(C)NC[C@H](O)COc1nsnc1N1CCOCC1 [Timolol Maleate] | 2,800 μg/mL | – |
| CC(C)OC(=O)CCC/C=C\C[C@@H]1[C@@H](/C=C/[C@@H](O)COc2cccc(C(F)(F)F)c2)[C@H](O)C[C@@H]1O [Travoprost] | 44 µg/mL | – |
| CC1(C)O[C@@H]2C[C@H]3[C@@H]4CCC5=CC(=O)C=C[C@]5(C)[C@@]4(F)[C@@H](O)C[C@]3(C)[C@]2(C(=O)CO)O1 [Triamcinolone Acetonide] | – | solubility at 68 h [3]: 20 µg/mL (≈ 46 µM) |
| O=c1[nH]c(=O)n([C@H]2C[C@H](O)[C@@H](CO)O2)cc1C(F)(F)F [Trifluridine] | 1,500 μg/mL | – |
| COc1cc2c(Nc3ccc(Br)cc3F)ncnc2cc1OCC1CCN(C)CC1 [Vandetanib (ZD6474), Vandetanib] | 8 µg/mL | – |
| Aflibercept | >100,000 μg/mL | – |
